Measurements published in US20250163070A1, “SPIRO COMPOUND AND APPLICATION THEREOF” (HITGEN INC., priority 2022, published 2025).
pIC50, pKd: −log10 of the molar value.

Experiments:
CRBN/DDB1 protein [1] = target: T1, CRBN/DDB1 protein (Homo sapiens (Human), UniProt Q96SW2); assay: Inhibition of CRBN/DDB1 protein activity, fluorescence resonance energy transfer (FRET) method with FITC-labeled thalidomide analog; type: binding; details: 5.0 nM CRBN/DDB1, 50.0 nM FITC-labeled thalidomide analog, 25° C., pH 7.0
T1 sequence (Q96SW2 whole entry, species assumed): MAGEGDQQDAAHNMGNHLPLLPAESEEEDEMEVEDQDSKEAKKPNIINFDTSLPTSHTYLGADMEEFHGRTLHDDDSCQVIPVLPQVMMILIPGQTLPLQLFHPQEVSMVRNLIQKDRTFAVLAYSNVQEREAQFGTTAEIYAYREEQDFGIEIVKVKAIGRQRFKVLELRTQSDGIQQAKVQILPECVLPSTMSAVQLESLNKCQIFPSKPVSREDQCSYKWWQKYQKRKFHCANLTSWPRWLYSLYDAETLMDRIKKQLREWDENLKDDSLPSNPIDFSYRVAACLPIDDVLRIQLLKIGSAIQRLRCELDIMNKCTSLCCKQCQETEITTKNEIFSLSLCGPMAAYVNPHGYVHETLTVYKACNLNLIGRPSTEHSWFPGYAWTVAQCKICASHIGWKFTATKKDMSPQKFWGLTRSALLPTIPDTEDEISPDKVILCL
T1 sequence (Q16531 whole entry partner, species assumed): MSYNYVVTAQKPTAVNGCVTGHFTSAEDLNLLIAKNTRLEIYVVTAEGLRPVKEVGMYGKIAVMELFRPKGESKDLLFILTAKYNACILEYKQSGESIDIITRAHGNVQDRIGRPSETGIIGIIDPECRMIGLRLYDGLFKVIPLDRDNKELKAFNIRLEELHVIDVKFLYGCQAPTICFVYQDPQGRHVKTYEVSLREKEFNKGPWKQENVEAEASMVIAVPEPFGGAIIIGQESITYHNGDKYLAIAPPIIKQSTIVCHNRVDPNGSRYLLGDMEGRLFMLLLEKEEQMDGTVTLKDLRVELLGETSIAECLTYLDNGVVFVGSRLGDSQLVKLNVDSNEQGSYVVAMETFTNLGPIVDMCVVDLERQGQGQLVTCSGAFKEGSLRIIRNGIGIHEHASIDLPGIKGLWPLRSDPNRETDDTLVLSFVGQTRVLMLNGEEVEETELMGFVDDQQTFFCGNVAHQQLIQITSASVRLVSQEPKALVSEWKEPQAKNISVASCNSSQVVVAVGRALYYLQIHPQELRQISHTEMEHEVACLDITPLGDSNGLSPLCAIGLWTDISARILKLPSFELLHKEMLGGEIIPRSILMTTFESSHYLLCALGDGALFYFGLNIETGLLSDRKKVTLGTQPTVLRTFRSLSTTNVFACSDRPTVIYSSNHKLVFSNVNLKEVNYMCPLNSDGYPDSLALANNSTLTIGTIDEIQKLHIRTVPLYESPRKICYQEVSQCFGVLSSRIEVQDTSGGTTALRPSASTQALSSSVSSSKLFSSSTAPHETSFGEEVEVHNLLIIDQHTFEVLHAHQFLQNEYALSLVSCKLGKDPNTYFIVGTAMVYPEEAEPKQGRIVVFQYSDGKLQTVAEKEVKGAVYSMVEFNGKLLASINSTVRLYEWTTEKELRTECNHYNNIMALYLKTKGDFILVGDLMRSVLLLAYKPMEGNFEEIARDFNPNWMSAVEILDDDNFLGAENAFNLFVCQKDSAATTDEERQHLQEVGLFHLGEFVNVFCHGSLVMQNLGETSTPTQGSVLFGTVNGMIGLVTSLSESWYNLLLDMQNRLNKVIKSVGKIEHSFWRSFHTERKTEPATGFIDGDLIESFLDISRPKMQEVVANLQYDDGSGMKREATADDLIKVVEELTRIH
Text: Experiment 1 Detection of Compounds Inhibition of CRBN/DDB1 Protein Activity (Using a Fluorescence Resonance Energy Transfer (FRET) Method)
Microplate reader (BMG PHERAstar FSX), ECHO (LABCYTE Echo 665), microplate thermostatic oscillator (Hangzhou Ruicheng Instrument Co., Ltd.), disodium hydrogen phosphate (Sigma-Aldrich (Shanghai) Trading Co., Ltd.), sodium dihydrogen phosphate (Sigma-Aldrich (Shanghai) Trading Co., Ltd.), bovine serum albumin (Sigma-Aldrich (Shanghai) Trading Co., Ltd.), Anti-6His-Tb crypate Gold (Cisbio Bioassays Company CISBIO), CRBN/DDB1 protein (HitGen Inc.), 384-well plate (Grenier Bio-one (Shanghai) Co., Ltd.).
The compound powders were dissolved in DMSO and serially diluted using ECHO. The resulting dilutions were individually added to 384-well reaction plates, ensuring that the final concentration of DMSO in the entire reaction system (10.0 μL) was 1.0%. An equal volume of DMSO was added as a control.
The CRBN/DDB1 protein was diluted to twice the required final concentration (5.0 nM) by addition of 20 mM disodium hydrogen phosphate, 20 mM sodium dihydrogen phosphate, 0.08% bovine serum albumin and a buffer with pH 7.0. […] The Anti-6His-Tb crypate Gold and FITC-labeled thalidomide analog were diluted to twice the required final concentration by addition of 20 mM disodium hydrogen phosphate, 20 mM sodium dihydrogen phosphate, 0.08% bovine serum albumin and the buffer with pH 7.0. The final concentration of Anti-6His-Tb crypate Gold was 0.2 nM, and the final concentration of the FITC-labeled thalidomide analog was 50.0 nM, so as to obtain a mixture of Anti-6His-Tb crypate Gold/FITC-labeled thalidomide analog. 5.0 μL of the mixture of Anti-6His-Tb crypate Gold/FITC-labeled thalidomide analog was individually added to the 384-well reaction plates, followed by centrifugation at 1000 rpm for 1 min. Then the reaction plates were incubated in the microplate thermostatic oscillator at 25° C. and 250 rpm for 30 min. After the reaction was completed, the fluorescence signal values in the 384-well reaction plates were read using the microplate reader (Ex=337 nm, Em=520/490 nm).
A solvent group (containing 5.0 nM CRBN/DDB1, 0.2 nM Anti-6His-Tb crypate Gold, 50.0 nM FITC-labeled thalidomide analog and 1.0% DMSO) was used as a negative control. A reaction buffer group (containing 0.2 nM Anti-6His-Tb crypate Gold, 50.0 nM FITC-labeled thalidomide analog and 1.0% DMSO) was used as the blank control.
The residual activity percentage at each concentration was calculated using the following formula: […]
A dose-effect curve was fitted using GraphPad 6.0 to calculate the IC50 value.

CRBN/DDB1 protein [2] = target: T1, CRBN/DDB1 protein; assay: Isothermal titration calorimetry (ITC) detection of compound binding to CRBN/DDB1; details: 25° C., pH 7.0, 10 μM protein, 100 μM compound, one set of sites model
Procedure: Experiment 2 Isothermal Titration Calorimetry (ITC) Detection of Compound Binding to CRBN/DDB1
6.1 mL of 200 mM disodium hydrogen phosphate aqueous solution and 3.9 mL of 200 mM sodium dihydrogen phosphate aqueous solution were mixed to obtain 200 mM PB buffer (pH 7.0). Then, 5397 μL of deionized water was mixed with 600 μL of 200 mM PB buffer and 3 μL of 10% Tween 20 aqueous solution to prepare a detection buffer with a pH of 7.0.
The protein storage solution was subjected to buffer exchange using the detection buffer prepared above according to the instruction of the Zeba™ Spin Desalting Columns (Thermo Fisher Scientific Inc., #89882). After the exchange was completed, ultraviolet (UV) absorption of the protein solution at OD280nm was measured using the microplate reader (BMG LABTECH Inc., PHERAstar FSX), and the concentration was calculated. Based on the measured concentration, the protein was diluted to 10 μM with the detection buffer, and added with DMSO to a final concentration of 1%, resulting in a total volume of 300 μL. After a brief centrifugation at room temperature, the solution was collected for later use.
The compound powder was dissolved in DMSO and diluted to 100 μM with the detection buffer prepared above. The DMSO concentration was adjusted to a final concentration of 1% with a total volume of 100 μL. […]

## O=C1CC2(CN(C(=O)c3c(C(=O)N4CC5(COC5)C4)sc4ccccc34)C2)C(=O)N1 [Compound A9]
CRBN/DDB1 protein [1]
  pIC50: > 7.00

## O=C1CC2(CN(C(=O)c3csc4ccccc34)C2)C(=O)N1 [Compound A13]
CRBN/DDB1 protein [1]
  pIC50: 5.00 to 6.00

## CN(C)C(=O)c1ccc(C(=O)N2CC3(CC(=O)NC3=O)C2)cc1 [Compound A4]
CRBN/DDB1 protein [1]
  pIC50: 5.00 to 6.00

## CN(C)C(=O)c1[nH]c2ccccc2c1CN1CC2(CC(=O)NC2=O)C1 [Compound A17]
CRBN/DDB1 protein [1]
  pIC50: 3.70 to 4.00

## NC(=O)c1sc2ccccc2c1C(=O)N1CC2(CC(=O)NC2=O)C1 [Compound A10]
CRBN/DDB1 protein [1]
  pIC50: 6.00 to 7.00

## CN(C)C(=O)c1[nH]c2ccccc2c1C(=O)N1CC2(CC(=O)NC2=O)C1 [Compound A3]
CRBN/DDB1 protein [1]
  pIC50: > 7.00
CRBN/DDB1 protein [2]
  pKd: 7.82

## COC(=O)c1ccccc1C(=O)N1CC2(CC(=O)NC2=O)C1 [Compound A14]
CRBN/DDB1 protein [1]
  pIC50: 6.00 to 7.00

## O=C1CC2(CN(C(=O)c3c(C(=O)NC4CCCCC4)sc4ccccc34)C2)C(=O)N1 [Compound A7]
CRBN/DDB1 protein [1]
  pIC50: > 7.00

## O=C1CC2(CN(C(=O)c3c(C(=O)N4CCNCC4)sc4ccccc34)C2)C(=O)N1 [Compound A8]
CRBN/DDB1 protein [1]
  pIC50: > 7.00

## O=C1CC2(CN(C(=O)c3cc4ccccc4s3)C2)C(=O)N1 [Compound A12]
CRBN/DDB1 protein [1]
  pIC50: 5.00 to 6.00

## CN(C)C(=O)c1cccc(C(=O)N2CC3(CC(=O)NC3=O)C2)c1 [Compound A5]
CRBN/DDB1 protein [1]
  pIC50: 5.00 to 6.00

## CN(C)C(=O)c1cscc1C(=O)N1CC2(CC(=O)NC2=O)C1 [Compound A6]
CRBN/DDB1 protein [1]
  pIC50: 6.00 to 7.00

## CN(C)C(=O)c1c(C(=O)N2CC3(CC(=O)NC3=O)C2)sc2ccccc12 [Compound A2]
CRBN/DDB1 protein [1]
  pIC50: 6.00 to 7.00

## CN(C)C(=O)c1c(C(=O)N2CC3(CC(=O)NC3=O)C2)c2ccccc2n1C [Compound A19]
CRBN/DDB1 protein [1]
  pIC50: > 7.00

## CC(=O)N1CCN(C(=O)c2sc3ccccc3c2C(=O)N2CC3(CC(=O)NC3=O)C2)CC1 [Compound A11]
CRBN/DDB1 protein [1]
  pIC50: > 7.00

## CN(C)C(=O)c1sccc1C(=O)N1CC2(CC(=O)NC2=O)C1 [Compound A15]
CRBN/DDB1 protein [1]
  pIC50: 5.00 to 6.00
